Starred links: 1 amine or outer side, 2 acyl side, 3 side chain; linkers in the order of their positions; H or OH if unused. Non-standard residues stand in square brackets, D forms with d. Residues, ends and D or L forms follow the SMILES beside them. Groups on a side chain read outwards from the residue. *: point of attachment. C20 diacid = O=C(O)CCCCCCCCCCCCCCCCCCC(=O)*; C18 diacid = O=C(O)CCCCCCCCCCCCCCCCC(=O)*; γGlu = O=C(O)[C@H](CCC(=O)[*:2])N[*:1]; αMeF = C[C@](N)(Cc1ccccc1)C(=O)O; AEEA = NCCOCCOCC(=O)O; Aib = CC(C)(N)C(=O)O
Legend:
[1] = system: GLP-1R knockout (KO) mice; experiment: Glucose change in GLP-1R knockout mice; assay type: in vivo, mouse; settings: GLP-1R KO mice, s.c., 60 min vs 0 min, no somatostatin pretreatment
Procedure, shortened: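 GLP-1R knockout mice (n=4-8/group, sorted by body weight) were fasted 2 h, and in some studies pretreated with octreotide 10 mg/kg 30 min before peptide injection. Mice were reused up to 3 times with at least 1-week wash-out.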

[2] = Mouse acute food intake study; assay type: in vivo; settings: male C57Bl/6 mice, s.c., dose 10 nmol/kg, cumulative food intake at 24 hr vs vehicle
Procedure, shortened: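 Peptide or vehicle went subcutaneously (5 mL/kg) to 6-8 h-fasted male C57Bl/6 mice shortly before the dark phase, with groups balanced on body weight and 24-hour intake. Cumulative food consumption was derived from 48 h of automated BioDaq monitoring with free food and water access.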

in vivo = settings: male, C57BL/6, mouse, 10 nmol/kg; for half-life: iv
Description: Selected test peptides (n=8) were profiled for pharmacokinetic (PK) properties in the mouse after single intravenous (i.v.) or subcutaneous (s.c.) dose. A subset (n=4) meeting the acceptance criteria was subsequently profiled in the dog (single i.v. dose) and non-human primate (single i.v. and s.c. dose). […] Low-binding plasticware containers were used during preparation and sample handling to avoid non-specific binding.
After dosing, PK samples were collected from the dorsal metatarsal vein. Blood of each sample was transferred into plastic micro centrifuge tubes containing EDTA-K2, inverted several times for proper mixing of contents and then placed on wet ice. The blood samples were centrifuged at 4° C. to obtain plasma and stored at −75° C. prior to analysis.
Samples analysis: Samples were analyzed by LC-MS/MS. Calibration standards were injected at the beginning and end of each batch and the determined concentration for each prepared standard was used to construct a calibration curve. Plasma and dose aliquot sample concentrations were determined from the plasma calibration curve.
Data analysis: Plasma concentration data was analyzed by non-compartmental analysis (NCA) using Phoenix Winnonlin v. 8.3.3.33. Linear trapezoidal rule was used for increasing values and log trapezoidal rule was used for decreasing values, applying uniform weighting for lambda_z calculations. Subcutaneous bioavailability was calculated as the ratio AUC(s.c.)0-inf/AUC(i.v.)0-inf. Reported values (Table 18) represent the mean of the individual estimates.

[3] = target: human glucagon receptor (hGCGR) (Homo sapiens, UniProt P47871); experiment: cAMP production (HTRF) in CHO cells expressing hGCGR; assay type: cell-based; set-up: expressed in transfected cells; settings: Table 6, peptides modified at position 17; cAMP in CHO hGCGR cells; geometric mean; read-out: hGluc-R EC50
Procedure, shortened: (§1)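 Potency values represent EC50 from 4-parameter logistic curves of HTRF % Delta F signal. Receptor-expressing CHO cells (hGCGR 2×10^5 cells/mL, hGLP-1R 1×10^5 cells/mL) were exposed for 30 min at room temperature before two-step cAMP detection.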

wildtype (WT) mice = experiment: Glucose change in wildtype mice; assay type: in vivo, mouse; settings: s.c., 60 min vs 0 min, no somatostatin pretreatment
Procedure, shortened: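 Wildtype mice aged 8-14 weeks, fasted 2 h, sometimes pre-treated with octreotide 10 mg/kg 30 min before peptide injection. Blood glucose by glucometer at -30, 0, 30, 60, 120, 180, 240 and 360 min; n=4-8/group, mice reused up to 3 times with ≥1 week wash-out.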

[4] = target: human GLP-1 receptor (hGLP-1R) (Homo sapiens, UniProt P43220); experiment: cAMP production (HTRF) in CHO cells expressing hGLP-1R; assay type: cell-based; set-up: expressed in transfected cells; settings: for EC50: Table 6, peptides modified at position 17, cAMP in CHO hGLP-1R cells, geometric mean, read-out: hGLP-1R EC50; for % Relative Potency Ratio: Table 6, % GLP-1R activity relative to GLP-1 / % GlucR activity relative to glucagon
Procedure, shortened: as §1

Chain of human GLP-1 receptor (hGLP-1R) (P43220 24-463): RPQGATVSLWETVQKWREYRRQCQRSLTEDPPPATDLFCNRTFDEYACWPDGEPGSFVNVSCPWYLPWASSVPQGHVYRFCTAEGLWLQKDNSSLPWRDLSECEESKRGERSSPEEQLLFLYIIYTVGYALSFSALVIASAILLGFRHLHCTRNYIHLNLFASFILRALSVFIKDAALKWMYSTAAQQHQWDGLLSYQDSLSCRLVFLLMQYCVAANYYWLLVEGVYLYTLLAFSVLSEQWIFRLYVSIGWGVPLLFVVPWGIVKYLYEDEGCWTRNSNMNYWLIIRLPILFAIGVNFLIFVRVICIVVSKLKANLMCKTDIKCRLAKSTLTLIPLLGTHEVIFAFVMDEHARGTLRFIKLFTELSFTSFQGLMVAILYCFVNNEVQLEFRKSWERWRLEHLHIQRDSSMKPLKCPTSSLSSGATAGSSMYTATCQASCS
Chain of human glucagon receptor (hGCGR) (P47871 26-477): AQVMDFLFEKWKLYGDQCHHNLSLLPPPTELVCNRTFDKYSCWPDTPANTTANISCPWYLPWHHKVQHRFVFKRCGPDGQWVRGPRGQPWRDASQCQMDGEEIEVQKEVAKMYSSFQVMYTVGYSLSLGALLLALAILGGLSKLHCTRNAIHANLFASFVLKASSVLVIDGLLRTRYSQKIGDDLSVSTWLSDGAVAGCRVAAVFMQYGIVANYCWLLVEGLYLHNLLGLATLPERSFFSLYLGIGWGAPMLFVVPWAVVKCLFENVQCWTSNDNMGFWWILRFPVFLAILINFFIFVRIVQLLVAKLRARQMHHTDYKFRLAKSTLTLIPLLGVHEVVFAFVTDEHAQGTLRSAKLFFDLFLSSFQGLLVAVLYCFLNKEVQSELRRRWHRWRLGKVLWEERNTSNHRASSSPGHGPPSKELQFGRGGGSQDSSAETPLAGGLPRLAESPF

bioavailability (in vivo)	half-life (in vivo)	EC50 [3]	EC50 [4]	% Relative Potency Ratio [4]	Structure (SMILES)	GLP-1R KO % glucose change - 60 min ([1]; 10 nmol/kg)	GLP-1R KO % glucose change - 60 min ([1]; 30 nmol/kg)	24 hr % Vehicle Food Intake [2]	WT % glucose change 60 min (wildtype (WT) mice; 10 nmol/kg)	WT % glucose change 60 min (wildtype (WT) mice; 30 nmol/kg)
102%	6.4 h	0.0464 nM	0.0227 nM	4.0	CC(C)C[C@H](NC(=O)[C@H](Cc1c[nH]c2ccccc12)NC(=O)[C@H](CCCNC(=N)N)NC(=O)[C@@H](NC(=O)[C@H](Cc1ccccc1)NC(=O)[C@H](CC(=O)O)NC(=O)[C@H](CCC(N)=O)NC(=O)[C@H](C)NC(=O)[C@H](CCCNC(=N)N)NC(=O)[C@H](CCCCNC(=O)COCCOCCNC(=O)COCCOCCNC(=O)CC[C@H](NC(=O)CCCCCCCCCCCCCCCCC(=O)O)C(=O)O)NC(=O)[C@@H](NC(=O)[C@H](CC(=O)O)NC(=O)[C@H](CC(C)C)NC(=O)[C@](C)(Cc1ccccc1)NC(=O)[C@H](CCCCN)NC(=O)[C@H](CO)NC(=O)[C@@H](NC(=O)[C@H](CC(=O)O)NC(=O)[C@H](CO)NC(=O)[C@@H](NC(=O)[C@H](Cc1ccccc1)NC(=O)[C@@H](NC(=O)CNC(=O)[C@H](CCC(N)=O)NC(=O)C(C)(C)NC(=O)[C@@H](N)Cc1c[nH]cn1)[C@@H](C)O)[C@@H](C)O)C(C)C)[C@@H](C)O)C(C)C)C(=O)N[C@@H](CC(C)C)C(=O)N[C@@H](CCC(=O)O)C(=O)NC(C)(C)C(=O)NCC(=O)O [Peptide 140] (H-H[Aib]QGTFTSDVSK[αMeF]LDTK([AEEA-AEEA-γGlu-C18 diacid])RAQDFVRWLLE[Aib]G-OH; N-terminus assumed)	46.2%	59.8%	65.4%	−32.1%	−29.0%
83%	2.9 h	0.0111 nM	0.00763 nM	2.9	CC(C)C[C@H](NC(=O)[C@H](Cc1c[nH]c2ccccc12)NC(=O)[C@H](CCC(N)=O)NC(=O)[C@@H](NC(=O)[C@H](Cc1ccccc1)NC(=O)[C@H](CC(=O)O)NC(=O)[C@H](CCCNC(=N)N)NC(=O)[C@H](C)NC(=O)[C@H](CCCNC(=N)N)NC(=O)[C@H](CCCCNC(=O)COCCOCCNC(=O)COCCOCCNC(=O)CC[C@H](NC(=O)CCCCCCCCCCCCCCCCC(=O)O)C(=O)O)NC(=O)[C@H](CCCCN)NC(=O)[C@H](CC(=O)O)NC(=O)[C@H](CC(C)C)NC(=O)[C@](C)(Cc1ccccc1)NC(=O)[C@H](CCCCN)NC(=O)[C@H](CO)NC(=O)[C@@H](NC(=O)[C@H](CC(=O)O)NC(=O)[C@H](CO)NC(=O)[C@@H](NC(=O)[C@H](Cc1ccccc1)NC(=O)[C@@H](NC(=O)CNC(=O)[C@H](CCC(N)=O)NC(=O)C(C)(C)NC(=O)[C@@H](N)Cc1c[nH]cn1)[C@@H](C)O)[C@@H](C)O)C(C)C)C(C)C)C(=O)N[C@@H](CC(C)C)C(=O)NC(C)(C)C(=O)N[C@@H](CCC(=O)O)C(N)=O [Peptide 472] (H-H[Aib]QGTFTSDVSK[αMeF]LDKK([AEEA-AEEA-γGlu-C18 diacid])RARDFVQWLL[Aib]E-NH2; N-terminus assumed)					
50%	8.9 h	0.117 nM	0.0541 nM	4.3	CC(C)C[C@H](NC(=O)[C@H](CC(C)C)NC(=O)[C@H](Cc1c[nH]c2ccccc12)NC(=O)[C@H](CCCNC(=N)N)NC(=O)[C@@H](NC(=O)[C@H](Cc1ccccc1)NC(=O)[C@H](CC(=O)O)NC(=O)[C@H](CCC(N)=O)NC(=O)[C@H](C)NC(=O)[C@H](CCCNC(=N)N)NC(=O)[C@H](CCCCNC(=O)COCCOCCNC(=O)COCCOCCNC(=O)CC[C@H](NC(=O)CCCCCCCCCCCCCCCCCCC(=O)O)C(=O)O)NC(=O)[C@@H](NC(=O)[C@H](CC(=O)O)NC(=O)[C@H](CC(C)C)NC(=O)[C@](C)(Cc1ccccc1)NC(=O)[C@H](CCCCN)NC(=O)[C@H](CO)NC(=O)[C@@H](NC(=O)[C@H](CC(=O)O)NC(=O)[C@H](CO)NC(=O)[C@@H](NC(=O)[C@H](Cc1ccccc1)NC(=O)[C@@H](NC(=O)CNC(=O)[C@H](CCC(N)=O)NC(=O)C(C)(C)NC(=O)[C@@H](N)Cc1c[nH]cn1)[C@@H](C)O)[C@@H](C)O)C(C)C)[C@@H](C)O)C(C)C)C(=O)N[C@@H](C)C(=O)NC(C)(C)C(=O)NCC(N)=O [Peptide 477] (H-H[Aib]QGTFTSDVSK[αMeF]LDTK([AEEA-AEEA-γGlu-C20 diacid])RAQDFVRWLLA[Aib]G-NH2; N-terminus assumed)					

From patent US20250353891A1 (MEDIMMUNE LIMITED, priority 2022, published 2025)
